Laboratory results as given in US10487093B2, “Heterocyclic compounds, in particular 2-oxo-4,4,5,5,6,6,7,7-octahydrobenzoxazole derivatives, and their use as antibacterial compounds” (priority 2016, dated 2019).
Converted amounts (≈) assume the structure as drawn. Read-outs that look alike come from different tables or passages of the source.

How the values were obtained:
[1] = system: Haemophilus influenzae ATCC 49247; test: MIC, broth microdilution (CLSI) versus planktonic bacteria; assay type: cell-based; details: Haemophilus influenzae ATCC 49247, 16-20 h, mode of three independent experiments; for MIC: ATCC49247, read-out: MIC, Hi ATCC 49247
E. coli MG1655 S83L = assay type: cell-based, Escherichia coli
[2] = system: Streptococcus pneumoniae ATCC 49619; test: MIC, broth microdilution (CLSI) versus planktonic bacteria; assay type: cell-based; details: Streptococcus pneumoniae ATCC 49619, 16-20 h, mode of three independent experiments; for MIC: ATCC49619, read-out: MIC, Sp ATCC 49619
[3] = system: Pseudomonas aeruginosa ATCC 27853; test: as above; assay type: cell-based; details: Pseudomonas aeruginosa ATCC 27853, 16-20 h, mode of three independent experiments; for MIC: ATCC27853, read-out: MIC, Pa ATCC 27853
[4] = system: Acinetobacter baumannii ATCC 19606; test: as above; assay type: cell-based; details: Acinetobacter baumannii ATCC 19606, 16-20 h, mode of three independent experiments; for MIC: ATCC19606, read-out: MIC, Ab ATCC 19606
E. coli ATCC BAA-2452 = test: as above; assay type: cell-based; details: Escherichia coli ATCC BAA-2452, 16-20 h, mode of three independent experiments; for MIC: read-out: MIC, Ec ATCC BAA 2452
[5] = system: Acinetobacter baumannii NCTC 13420; test: as above; assay type: cell-based; details: Acinetobacter baumannii NCTC 13420, 16-20 h, mode of three independent experiments; for MIC: NCTC13420, read-out: MIC, Ab NCTC 13420
[6] = system: Enterobacter cloacae NCTC 13406; test: as above; assay type: cell-based; details: Enterobacter cloacae NCTC 13406, 16-20 h, mode of three independent experiments; for MIC: NCTC13406, read-out: MIC, Ecl NCTC 13406
[7] = system: Staphylococcus aureus ATCC 29213; test: as above; assay type: cell-based; details: Staphylococcus aureus ATCC 29213, 16-20 h, mode of three independent experiments; for MIC: ATCC29213, read-out: MIC, Sa ATCC 29213
E. coli MG1655 = test: as above; assay type: cell-based, Escherichia coli; details: for MIC, Ec MG1655 WT: Escherichia coli MG1655 WT, 16-20 h, mode of three independent experiments; for MIC: Escherichia coli, MG1655, read-out: MIC, Ec MG1655 WT
[8] = system: Escherichia coli ATCC 25922; test: as above; assay type: cell-based; details: Escherichia coli ATCC 25922, 16-20 h, mode of three independent experiments; for MIC: ATCC25922, read-out: MIC, Ec ATCC 25922
E. coli MG1655 D87G = assay type: cell-based, Escherichia coli
E. coli NCTC 13476 = test: MIC, broth microdilution (CLSI) versus planktonic bacteria; assay type: cell-based; details: Escherichia coli NCTC 13476, 16-20 h, mode of three independent experiments; for MIC: NCTC13476, read-out: MIC, Ec NCTC 13476
[9] = system: human hepatic cell line (HepG2 ATCC HB-8065); test: Human cell viability assay (CellTiter-Glo); details: for IC50 (μg/mL) HepG2: HepG2 cell viability, 24 h, CellTiter-Glo; for IC50: Homo sapiens, HepG2, 24 h, read-out: IC50 (μg/mL) HepG2
[10] = compared to the isogenic parent strain E. coli MG1655, S83L mutation on DNA gyrase subunit GyrA
[11] = compared to the isogenic parent strain E. coli MG1655, D87G mutation on DNA gyrase subunit GyrA

| Compound | MIC [1] [µg/mL] | Fold increase in MIC, E. coli MG1655 S83L (E. coli MG1655 S83L; [10]) [fold] | MIC [2] [µg/mL] | MIC [3] [µg/mL] | MIC [4] [µg/mL] | MIC (E. coli ATCC BAA-2452) [µg/mL] | MIC [5] [µg/mL] | MIC [6] [µg/mL] | MIC [7] [µg/mL] | MIC (E. coli MG1655) [µg/mL] | MIC [8] [µg/mL] | Fold increase in MIC, E. coli MG1655 D87G (E. coli MG1655 D87G; [11]) [fold] | MIC (E. coli NCTC 13476) [µg/mL] | IC50 [9] [µg/mL] | also measured |
| --- | --- | --- | --- | --- | --- | --- | --- | --- | --- | --- | --- | --- | --- | --- | --- |
| 1-[(2S)-3-{[(3aR,6R,7aR)-2-oxo-3-{3-oxo-2H,3H,4H-pyrido[3,2-b][1,4]oxazin-6-yl}-octahydro-1,3-benzoxazol-6-yl]amino}-2-hydroxypropyl]-7-fluoro-1,2-dihydroquinoxalin-2-one & 1-[(2R)-3-{[(3aR,6R,7aR)-2-oxo-3-{3-oxo-2H,3H,4H-pyrido[3,2-b][1,4]oxazin-6-yl}-octahydro-1,3-benzoxazol-6-yl]amino}-2-hydroxypropyl]-7-fluoro-1,2-dihydroquinoxalin-2-one [Compound 94] | – | – | – | – | – | – | – | – | – | – | – | – | – | – | MIC, Hi ATCC 49247 [1]: A (an MIC (in μg/mL) of less or equal to 1 is assigned the letter A); Fold increase in MIC, E. coli MG1655 S83L (E. coli MG1655 S83L): 1 fold; MIC, Sp ATCC 49619 [2]: A (an MIC (in μg/mL) of less or equal to 1 is assigned the letter A); MIC, Pa ATCC 27853 [3]: B (a MIC of from 1 to 10 is assigned the letter B); MIC, Ab ATCC 19606 [4]: B (a MIC of from 1 to 10 is assigned the letter B); MIC, Ec ATCC BAA 2452 (E. coli ATCC BAA-2452): A (an MIC (in μg/mL) of less or equal to 1 is assigned the letter A); MIC, Ab NCTC 13420 [5]: B (a MIC of from 1 to 10 is assigned the letter B); MIC, Ecl NCTC 13406 [6]: B (a MIC of from 1 to 10 is assigned the letter B); MIC, Sa ATCC 29213 [7]: A (an MIC (in μg/mL) of less or equal to 1 is assigned the letter A); MIC, Ec MG1655 WT (E. coli MG1655): A (an MIC (in μg/mL) of less or equal to 1 is assigned the letter A); MIC, Ec ATCC 25922 [8]: A (an MIC (in μg/mL) of less or equal to 1 is assigned the letter A); Fold increase in MIC, E. coli MG1655 D87G (E. coli MG1655 D87G): 2 fold; MIC, Ec NCTC 13476 (E. coli NCTC 13476): A (an MIC (in μg/mL) of less or equal to 1 is assigned the letter A); IC50 (μg/mL) HepG2 [9]: A (an IC50 of over 100 is assigned the letter A) |
| 1-[(2S)-3-{[(3aS,6S,7aS)-2-oxo-3-{3-oxo-2H,3H,4H-pyrido[3,2-b][1,4]oxazin-6-yl}-octahydro-1,3-benzoxazol-6-yl]amino}-2-hydroxypropyl]-7-fluoro-1,2-dihydroquinoxalin-2-one & 1-[(2R)-3-{[(3aS,6S,7aS)-2-oxo-3-{3-oxo-2H,3H,4H-pyrido[3,2-b][1,4]oxazin-6-yl}-octahydro-1,3-benzoxazol-6-yl]amino}-2-hydroxypropyl]-7-fluoro-1,2-dihydroquinoxalin-2-one [Compound 95] | – | – | – | – | – | – | – | – | – | – | – | – | – | – | MIC, Hi ATCC 49247 [1]: A (an MIC (in μg/mL) of less or equal to 1 is assigned the letter A); Fold increase in MIC, E. coli MG1655 S83L (E. coli MG1655 S83L): 0.5 fold; MIC, Sp ATCC 49619 [2]: A (an MIC (in μg/mL) of less or equal to 1 is assigned the letter A); MIC, Pa ATCC 27853 [3]: B (a MIC of from 1 to 10 is assigned the letter B); MIC, Ab ATCC 19606 [4]: B (a MIC of from 1 to 10 is assigned the letter B); MIC, Ec ATCC BAA 2452 (E. coli ATCC BAA-2452): A (an MIC (in μg/mL) of less or equal to 1 is assigned the letter A); MIC, Ab NCTC 13420 [5]: A (an MIC (in μg/mL) of less or equal to 1 is assigned the letter A); MIC, Ecl NCTC 13406 [6]: B (a MIC of from 1 to 10 is assigned the letter B); MIC, Sa ATCC 29213 [7]: A (an MIC (in μg/mL) of less or equal to 1 is assigned the letter A); MIC, Ec MG1655 WT (E. coli MG1655): A (an MIC (in μg/mL) of less or equal to 1 is assigned the letter A); MIC, Ec ATCC 25922 [8]: A (an MIC (in μg/mL) of less or equal to 1 is assigned the letter A); Fold increase in MIC, E. coli MG1655 D87G (E. coli MG1655 D87G): 1 fold; MIC, Ec NCTC 13476 (E. coli NCTC 13476): A (an MIC (in μg/mL) of less or equal to 1 is assigned the letter A); IC50 (μg/mL) HepG2 [9]: A (an IC50 of over 100 is assigned the letter A) |
| COc1ccc2ncc(=O)n(CCN[C@H]3CCC4C(C3)OC(=O)N4c3ccc4c(n3)NC(=O)CO4)c2n1 (stereo in doubt) [Compound 45, (3aS,6S,7aS)-6-[(2-{6-methoxy-3-oxo-3H,4H-pyrido[2,3-b]pyrazin-4-yl}ethyl)amino]-3-{3-oxo-2H,3H,4H-pyrido[3,2-b][1,4]oxazin-6-yl}-octahydro-1,3-benzoxazol-2-one] | < 1 | 2 | < 1 | 1 to 10 (≈ 1.97 to 19.7 µM) | < 1 | < 1 | < 1 | < 1 | < 1 | < 1 | < 1 | 1 | < 1 | 10 to 100 (≈ 19.7 to 197 µM) | – |
| COc1ccc2ccc(=O)n(CCN(CCO)[C@H]3CC[C@H]4[C@@H](C3)OC(=O)N4c3ccc4c(n3)NC(=O)CO4)c2n1 [Compound 7, 1-(2-{[(3aS,6S,7aR)-2-oxo-3-{3-oxo-2H,3H,4H-pyrido[3,2-b][1,4]oxazin-6-yl}-octahydro-1,3-benzoxazol-6-yl](2-hydroxyethyl)amino}ethyl)-7-methoxy-1,2-dihydro-1,8-naphthyridin-2-one] | 1 to 10 (≈ 1.82 to 18.2 µM) | 1 | < 1 | 1 to 10 (≈ 1.82 to 18.2 µM) | 1 to 10 (≈ 1.82 to 18.2 µM) | 1 to 10 (≈ 1.82 to 18.2 µM) | < 1 | 1 to 10 (≈ 1.82 to 18.2 µM) | < 1 | < 1 | < 1 | 1 | 1 to 10 (≈ 1.82 to 18.2 µM) | > 100 | – |
| N#Cc1cnc2ccc(=O)n(CCN[C@H]3CC[C@H]4[C@H](C3)OC(=O)N4c3ccc4c(n3)NC(=O)CO4)c2c1 [Compound 55, 5-(2-{[(3aS,6S,7aS)-2-oxo-3-{3-oxo-2H,3H,4H-pyrido[3,2-b][1,4]oxazin-6-yl}-octahydro-1,3-benzoxazol-6-yl]amino}ethyl)-6-oxo-5,6-dihydro-1,5-naphthyridine-3-carbonitrile] | < 1 | 1 | < 1 | – | < 1 | < 1 | < 1 | < 1 | < 1 | < 1 | < 1 | 1 | < 1 | > 100 | – |
| N#Cc1ccc2ccc(=O)n(CCN[C@H]3CC[C@H]4[C@H](C3)OC(=O)N4c3ccc4c(n3)NC(=O)CO4)c2c1 [Compound 56, 1-(2-{[(3aS,6S,7aS)-2-oxo-3-{3-oxo-2H,3H,4H-pyrido[3,2-b][1,4]oxazin-6-yl}-octahydro-1,3-benzoxazol-6-yl]amino}ethyl)-2-oxo-1,2-dihydroquinoline-7-carbonitrile] | < 1 | 1 | < 1 | – | < 1 | < 1 | < 1 | < 1 | < 1 | < 1 | < 1 | 2 | < 1 | 10 to 100 (≈ 20 to 200 µM) | – |
| O=C1COc2ccc(N3C(=O)O[C@H]4C[C@@H](NCCn5c(=O)cnc6ccc(F)cc65)CC[C@@H]43)nc2N1 [Compound 84, 1-(2-{[(3aS,6S,7aS)-2-oxo-3-{3-oxo-2H,3H,4H-pyrido[3,2-b][1,4]oxazin-6-yl}-octahydro-1,3-benzoxazol-6-yl]amino}ethyl)-7-fluoro-1,2-dihydroquinoxalin-2-one] | < 1 | 1 | < 1 | 1 to 10 (≈ 2.02 to 20.2 µM) | < 1 | < 1 | – | < 1 | < 1 | < 1 | < 1 | 1 | < 1 | 10 to 100 (≈ 20.2 to 202 µM) | – |
